Results taken from patent US8337907B2, “Use of volatile oil from plants in preparing medicaments for preventing and treating diabetes” (priority 2007, dated 2012).
Read-outs that look alike come from different tables or passages of the source.

Assays:
[1] = water, ethanol; cited from earlier work
[2] = cited from earlier work
[3] = tested on: delayed type diabetic Wistar rat model (type 1 diabetes); experiment: delayed type streptozotocin plus CFA/IFA type 1 diabetes rat model; assay type: in vivo, Wistar rats; design: unit not given here; details: table: d-limonene 0.8 ml/kg; fasting 4 hours, 2 hours after dose; before treating 24.4 ± 2.958; p<0.01
healthy rats = experiment: blood glucose of healthy rats; details: rat, in vivo
healthy volunteers = experiment: test to healthy volunteers; assay type: in vivo, human; details: for postprandial blood glucose peak at breakfast: 0.9 ml at three meals daily, 7 days
Protocol: A person, Healthy have not any disease.
A person, healthy without any disease. fasting blood glucose was waved in 5.0-5.4 mmol/L (79-96 mg/dl), in postprandial blood glucose 8-12.2 mmol/L ([…]) between. Abnormal glucose tolerance test.

[4] = tested on: type 2 diabetes rat model; experiment: test of type 2 diabetes rat model (streptozotocin, fast-generated NIDDM model); assay type: in vivo, Wistar rats; design: unit not given here; details: 2.4 ml/kg intubated, fasting 4 hours, blood 2 hours after dose; before treatment 27.14 ± 1.154; p<0.01
[5] = tested on: drug-induced diabetic rats; experiment: blood glucose in drug-induced diabetic rats, summary statement; assay type: in vivo; details: oral 0.8-2.4 ml/kg, within 0.5-2 hours
Description: The present invent can reduce fasting blood glucose of that severe case streptozotocin-induced rats of type 1 and type 2 diabetes.

[6] = tested on: type 1 diabetes rat model (IDDM); experiment: test of type 1 diabetes rat model (streptozotocin, day 3-6 after injection); assay type: in vivo, rats; details: 2.4 ml/kg intubated, 2 hours after dose
Description: Establishment of a type 1 diabetes rat test model. Recent years, more people have definitely expressed that viewed streptozotocin-induced of diabetes test model. Although, it is a model of type 1 diabetes in principle, but can using as a model of type 2 diabetes.

type 2 diabetes patients = details: for postprandial blood glucose peak at breakfast: 0.9 ml at three meals daily, 7 days
Description: Patient keep measurable middling food and drink in the interim.

[7] = Example 6 patient, treatment for 12 weeks
[8] = Example 7 patient, 7 days treatment

## C=C(C)C1CC=C(C)CC1 (stereo not shown) [Limonene, 1-methyl-4-prop-1-en-2-yl-cyclohexene]
[1]
  solubility: do not in water but in ethanol
[2]; from initial limonene, after oral administration
  Perilla acid methyl ester and Dihydrotestosterone Perilla acid methyl ester in plasma: 5%
[2]; in vivo
  eliminated in the CO2 exhaled: 2%
  eliminated in the dejecta: 5%
[2]; of limonene in plasma
  converted to primary metabolites Dihydrotestosterone acid Perilla and Perilla acid: about 35%
[2]; of the initial volume
  converted to limonene 1,2-diol: about 18%
[2]; within 24 hours
  eliminated in the urine: about 60%

## C=C(C)[C@H]1CC=C(C)CC1 [d-limonene, (4R)-1-methyl-4-prop-1-en-2-ylcyclohexene]
[3]
  fasting glucose after treating: 17.45 ± 1.886
Healthy rats
  effect on blood glucose of healthy rats: do not reduce blood glucose of healthy rats
Healthy volunteers; Example 8, healthy person
  blood glucose compared before and after treatment: blood glucose basically unchanged
  time of postprandial blood glucose peak: 0.5 h
  postprandial blood glucose peak at breakfast: 6.3 to 8.4 mmol/L
Healthy volunteers; Example 9, person
  blood glucose compared before and after treatment: blood glucose basically unchanged
  time of postprandial blood glucose peak: 0.5 h
Healthy volunteers; Example 9, person, abnormal glucose tolerance test, before 8-12.2 mmol/L
  postprandial blood glucose peak at breakfast: 10.3 to 11.7 mmol/L
Healthy volunteers; human, in vivo
  effect on postprandial or fasting blood glucose level in healthy: do not reduce postprandial or fasting blood glucose level
[4]
  fasting glucose after treatment: 19.39 ± 6.064
[5]
  effect on blood glucose level: blood glucose level reduce a lot
[6]; IDDM group 25.27 ± 2.632, p<0.01
  Blood glucose, First day: 20.26 ± 5.039 mmol/L
[6]; IDDM group 25.97 ± 2.966, p>0.05
  Blood glucose, Four day: 23.32 ± 4.891 mmol/L
[6]; IDDM group 26.08 ± 3.896, p<0.05
  Blood glucose, Third day: 21.88 ± 5.754 mmol/L
[6]; IDDM group 26.17 ± 2.858, p<0.05
  Blood glucose, 1-4 days Average: 21.89 ± 5.230 mmol/L
[6]; IDDM group 27.36 ± 1.243, p<0.01
  Blood glucose, Second day: 22.08 ± 5.421 mmol/L
[2]; after oral administration
  absorption from the gastrointestinal: absorbed rapidly
[2]; within 48 hours
  absorbed drug excreted by the urethra: 75-95%
Type 2 diabetes patients; Example 6 patient, before: under 15.6 mmol/L
  postprandial blood glucose peak at breakfast: 11.8 mmol/L
Type 2 diabetes patients; Example 6 patient, 6-8 hours after the meal, after 12 weeks
  hypoglycemic reaction without food: have not hypoglycemic reaction
Type 2 diabetes patients; Example 6 patient, 7 days treatment
  time of postprandial blood glucose peak: 1.25 h
Type 2 diabetes patients; [7]
  peak value time: 0.75 h
  postprandial blood glucose peak value: 10.4 mmol/L
Type 2 diabetes patients; Example 7 patient, before: maximum 23 mmol/L
  postprandial blood glucose peak at breakfast: 18.7 mmol/L
Type 2 diabetes patients; [8]
  blood glucose level average reduce, before to after treating: 6.99 mmol/L
  time of postprandial blood glucose peak: 1.25 h
Type 2 diabetes patients; type 2 diabetes patients, 0.9 ml after three meals daily
  effect on postprandial blood glucose levels: clear and stably reduce postprandial blood glucose levels
